The values that follow come from patent publication US20130333059A1, “HOX COMPOSITIONS AND METHODS” (THE JOHNS HOPKINS UNIVERSITY, priority 2006, published 2013).

Structures are written as SMILES. Entries after “also recorded” stand apart in the source; their conditions may differ.

The test system of one experiment is TGFα and HB-EGF. As to the kind of experiment: Immunoblot of TGFα and HB-EGF in MCF-10A-B7 cells. The class given is cell-based, human. The following applies: 0.1 μM AG1478, 24 hours. (In general: A western blot detects proteins with antibodies after separation by electrophoresis.)
Another experiment deals with MDCK-B7 cells. As to the kind of experiment: Matrigel invasion assay, pooled MDCK-B7 cells. The class given is cell-based, canine. The settings on record: Su5402 40 μmol/L; for invasive phenotype / invasive ability of MDCK-B7 cells: 36 hours, Bay43-9006 4 μmol/L, U0126 10 μmol/L, either inhibitor alone or in combination. Here is the method:
(§1) Matrigel invasion assay. Into the Biocoat Matrigel invasion chambers (BD Biosciences) were seeded 4×10^4 cells in 2% FBS medium, and in the lower wells 10% FBS was added as the chemoattractant. After 36 hours of incubation, the filters were stained with crystal violet, and the number of cells that had penetrated through the filter was counted under ×20 magnification (10 randomly selected high-power fields). For inhibition of invasion assays, the FGF receptor inhibitor Su5402 (40 μmol/L), the MAPK/extracellular signal-regulated kinase kinase (MEK) inhibitor U0126 (10 μmol/L), and the Raf inhibitor Bay43-9006 (4 μmol/L; Calbiochem, San Diego, Calif.) were added to the medium in the top chamber at the final concentrations indicated. Ras and RhoA activation assay. Cell lysates were incubated with glutathione S-transferase (GST)-Raf-1 Ras binding domain or GST-Rhotekin RhoA binding domain agarose beads (Upstate, Charlottesville, Va.). GTP-bound Ras or RhoA that precipitated with the beads were detected by SDS-PAGE and immunoblotting with anti-Ras antibody (Santa Cruz Biotechnology) or anti-RhoA antibody (Upstate).

A further experiment has as its system Ras. As to the kind of experiment: Ras activation assay, MDCK-B7 cells. In kind it is cell-based, canine. How it is done:
as §1

Experiment [1] has as its system MCF-7-B7 cells. Briefly: Soft agar colony formation, MCF-7-B7 cells. The class given is cell-based, human.
For a further experiment, the system named is BT474 cells. Briefly: Soft agar colony formation, BT474 cells. In kind it is cell-based, human. The settings on record: 1 μM gefitinib and 1 μM tamoxifen.
The test system of experiment [2] is EGFR, HER2, ERα and HOXB7. Briefly: Immunoblot of EGFR, HER2, ERα, HOXB7 in long-term tamoxifen treated MCF-7 (MCF-7-TMR) cells. In kind it is cell-based, human.
Experiment [3] concerns Her2 positive transgenic mammary tumor cells. Briefly: Sensitivity to anti-ER drugs, Her2 positive transgenic mammary tumor cells. In kind it is cell-based, mouse. The settings on record: cells do not express ER.
In another experiment the test system is LTED cells. The following applies: Martin La., 2005; cited from earlier work.
The next experiment deals with ERE-luc reporter. Briefly: ERE-tk-Luc reporter assay, MCF-7-B7 cells. The settings on record: 100 nM tamoxifen, 10 nM E2, 24 h. The class given is cell-based, human. Here is the method: Transient transfection was performed with the respective promoter-luciferase constructs. Results were normalized to the level of B-galactosidase activity in the samples. The EGFR promoter reporter plasmids were a kind gift of Dr. Alfred C. Johnson (Bethesda, Md.). ERE-tk-LUC was a generous gift from Dr. Elaine Alarid (Madison, Wis.).
(A reporter such as luciferase makes a cellular process visible.)

The next experiment has as its system MCF-7-TMR cells. Briefly: Colony formation and ERE-Luc activity, MCF-7-TMR cells. In kind it is cell-based, human.
Another experiment deals with HOXB7, EGFR and HER2. Briefly: HOXB7, EGFR, HER2 expression in T47D cells upon tamoxifen. In kind it is cell-based, human.
The test system of experiment [4] is MCF-7-B7 cells. Briefly: Xenograft of MCF-7-B7 cells in athymic mice. In kind it is in vivo. The settings on record: absence of exogenous estrogen supplement. How it is done:
3×10^6 cells of MCF-7-vec or MCF-7-B7 were suspended in 100 μl PBS/Matrigel (1:1) and injected s.c into the female 3- to 4-week-old BALB/c nu/nu athymic mice (Harlan, Sprague Dawley, Madison, Wis.), which simultaneously received a 60-day slow release pellet containing 0.72 mg of 17β-estradiol and/or 5 mg tamoxifen (Innovative Research of America, Southfield, Mich.). Fulvestrant was dissolved in 100% ethanol and diluted in sesame oil; 5 mg was injected s.c. twice a week^20. Animals were observed once a week. At necropsy, primary tumors, liver, lung and spleen were evaluated for the presence of macroscopic tumors. Tissue samples of the primary tumor and organs were fixed in 4% paraformaldehyde and stained with H&E to assess histomorphology.

In experiment [5] the test system is Her2/Hoxb7 transgenic mouse mammary tumor cells. Briefly: Sensitivity to anti-ER drugs, Her2/Hoxb7 transgenic mouse mammary tumor cells. In kind it is cell-based.
For experiment [6], the system named is EGFR/HER2 and ERα signaling. As to the kind of experiment: Immunoblot of EGFR/HER2, MAPK, ERα signaling in MCF-7-B7 cells. In kind it is cell-based, human.
The subject of another experiment is HOXB7 promoter region. Briefly: CHIP analysis of T47D cells, HOXB7 promoter region. The class given is cell-based, human. The following applies: 1 μM tamoxifen, 45 min.
The subject of experiment [7] is EGFR/HER2 and ERα signaling. As to the kind of experiment: Immunoblot of EGFR/HER2, MAPK, ERα signaling in MCF-7-vec cells. The class given is cell-based, human. The following applies: 1 μM tamoxifen, estrogen deprived medium, 48 hours.
The conditions of experiment [8]: in the clinic; cited from earlier work.
Where [9] appears, read: MCF-7 cells, 0.1 μM tamoxifen over time (0, 2, 4, 6 months).
[10] abbreviates: MCF-7 cells, 1 μM or 0.1 μM tamoxifen for at least 6 months.

Take `COc1cc2ncnc(Nc3cccc(Cl)c3)c2cc1OC` [AG1478]: in the experiment with TGFα and HB-EGF, the “elevated expression of TGFα and HB-EGF” value is “significantly abrogated”.
On to `N#CC(=C(/N)Sc1ccccc1N)/C(C#N)=C(\N)Sc1ccccc1N` [U0126], for which, in the experiment on MDCK-B7 cells, the “invasive phenotype / invasive ability of MDCK-B7 cells” value (from here on “invasive phenotype / invasive ability”) was “complete suppression; also recorded: block”.
Consider `Cc1c[nH]c(/C=C2\C(=O)Nc3ccccc32)c1CCC(=O)O` [Su5402], for which the “active form Ras (Ras-GTP form)” value in the experiment with Ras is listed as “attenuate”. In the experiment on MDCK-B7 cells, the “invasive phenotype / invasive ability” value is reported as “reduce” and the “inhibition of invasion ability of MDCK-B7 cell” value is listed as around 80%.
As to `CNC(=O)c1cc(Oc2ccc(NC(=O)Nc3ccc(Cl)c(C(F)(F)F)c3)cc2)ccn1` [Bay43-9006], the “invasive phenotype / invasive ability” value in the experiment on MDCK-B7 cells is “complete suppression”; in the experiment with MDCK-B7 cells (listed as BAY 43-9006) it was “block”.
As to `COc1cc2ncnc(Nc3ccc(F)c(Cl)c3)c2cc1OCCCN1CCOCC1` [gefitinib], the “sensitivity of the cells to tamoxifen treatment” value with MCF-7-B7 cells [1] (1 μM tamoxifen in combination with 1 μM gefitinib) was “significantly re-sensitized”. The “effect on tamoxifen action in BT474 cells” value in the experiment with BT474 cells is listed as “dramatically converted tamoxifen from a partial agonist to a potent antagonist”.
Consider `CC/C(=C(\c1ccccc1)c1ccc(OCCN(C)C)cc1)c1ccccc1` [tamoxifen], for which, in experiment [2] (setting [9]), the “expression of EGFR/HER2 and ERα” value is recorded as “concomitant increases”; the “levels of expression of HOXB7” value is “progressively increasing levels”. In experiment [2] (setting [10]), the HOXB7 expression level result is on record as “potently elevated”; the “expression of EGFR, HER2 and ERα” value is on record as “elevated expression”. Also, the response to treatment entry in experiment [3] was “did not respond”. Moreover, the “sensitivity of LTED cells” value in the experiment on LTED cells is listed as “refractory”. In addition, in the experiment with ERE-luc reporter, the “attenuation of estrogen-stimulated ERE-luc reporter activity” value is “inability”. Moreover, in the experiment with MCF-7-TMR cells (100 nM tamoxifen), the “resistance to tamoxifen treatment (colony formation and ERE-Luc activity)” value is on record as “significant resistance”. For the same molecule, in the experiment with HOXB7, EGFR and HER2 (1 μM tamoxifen, short-term), the “expression of HOXB7” value is reported as “increased expression”. The “expression levels of EGFR and HER2” value in the experiment on HOXB7, EGFR and HER2 (tamoxifen) is “induced”. The “growth (colonies in soft agar)” value in the experiment with MCF-7-B7 cells [1] (estrogen-deprived conditions, tamoxifen 1 μM) was “enhanced”. The “sensitivity to the inhibitory effects of tamoxifen in culture” value in the experiment on MCF-7-B7 cells [1] (tamoxifen 1 μM, complete medium) is reported as “loss of sensitivity”. Also, in the experiment on MCF-7-B7 cells [4] (tamoxifen 83.3 μg/day), the “effect on established tumors of MCF-7-B7 cells in nude mice” value is on record as “no inhibitory effect”. The response to treatment entry in [5] is recorded as “not responding”. In experiment [6] (1 μM tamoxifen, 48 hours), the “effect on the expression of Cyclin D1 and Bcl-2” value is “potent estrogen-like agonistic effect”; the “p44/42 MAPK activity and phosphorylation of ERα at serine 118” value is “increased”. The “active forms of EGFR and HER2” value in experiment [6] (1 μM tamoxifen, estrogen deprived medium, 48 hours) was “significantly higher level”. Further, the “activation of p44 MAPK and ER phosphorylation at Ser 118 site” value in [6] (1 μM tamoxifen, short period, MCF-7-B7) is “potently stimulates”. Besides, the “levels of active forms of EGFR and HER2” value in [6] (1 μM tamoxifen, short period, estrogen deprived) is listed as “elevated levels”. Further, in the experiment on HOXB7 promoter region, the “binding of ERα to HOXB7 promoter region” value is “promoted binding”. In experiment [7], the “increase of active form of HER2” value is “about 1.5 fold” and the “levels of the active form of EGFR” value is “reduction”.
As for `C[C@]12CC[C@@H]3c4ccc(O)cc4C[C@@H](CCCCCCCCC[S+]([O-])CCCC(F)(F)C(F)(F)F)[C@H]3[C@@H]1CC[C@@H]2O` (stereo partly shown) [fulvestrant], in [2] (MCF-7-TMR cells, 1 μM fulvestrant, 24 h), the “expression of EGFR and HER2” value is “significantly reduced”. Besides, the HOXB7 levels result in [2] (MCF-7-TMR cells, 1 μM fulvestrant, 24 h, vs vehicle) was “lower”. In addition, the response to treatment entry is given as “did not respond” in experiment [3] and “strongly respond” in [5]. For the same molecule, the “sensitivity of LTED cells” value in the experiment on LTED cells was “sensitive”. Besides, the “sensitivity to fulvestrant treatment in vitro” value in the experiment with MCF-7-TMR cells (MCF-7-TMR, 1 μM Fulvestrant) is on record as “remained sensitive”; in the experiment with MCF-7-B7 cells [1] (MCF-7-B7, 1 μM Fulvestrant) it was “remained sensitive”. Also, in experiment [8], the “tamoxifen-relapsed / tamoxifen-resistant patients who respond” value is reported as “nearly two-thirds”. In addition, the “HOXB7-promoted colony formation in vitro” value with MCF-7-B7 cells [1] (in a dose-dependent manner) is reported as “reduced”. Moreover, the “tumor formation in vivo” value with MCF-7-B7 cells [4] (fulvestrant 10 mg/week) is on record as “reduced”. In experiment [6] (1 μM fulvestrant, 24 h), the “levels of the autocrine/paracrine EGFR ligands (Amphiregulin and TGFα)” value was “significant reduction”. For the same molecule, the “HOXB7 overexpression-related increases in EGFR and p44/42 MAPK activity” value in [6] (fulvestrant treatment) is listed as “reduced”.
